Experimental findings from patent US20130109682A1, “CYCLIC ETHER COMPOUNDS USEFUL AS KINASE INHIBITORS” (NOVARTIS AG, priority 2010, published 2013) are described below.

One assay concerns the target PIM2 (Homo sapiens, UniProt Q9P1W9). Put plainly: KinaseGlo Pim2 ATP depletion assay. It is filed as biochemical. The procedure, abridged:
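Compound sat 15 min with enzyme and BAD peptide before ATP was added; final levels 5 nM PIM2, 10 μM peptide, 4 μM ATP, 2.5% DMSO, pH 7.5 HEPES buffer with MgCl2, DTT, BSA. Stopped near 50% ATP consumption; remaining ATP measured by luciferase luminescence.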
(Kinase-Glo reads ATP consumption through a luciferase reaction.)

A further assay concerns the target GSK3β (Homo sapiens, UniProt P49841). Put plainly: GSK3β ATP depletion assay. It is filed as biochemical. As to conditions: read-out: GSK3b IC50. The procedure, abridged:
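Kinase activity is read as ATP consumption: luciferase luminescence reports the ATP remaining once roughly half of the 2 μM ATP is used. Reaction mix: 5 nM GSK3β, 10 μM b-CREB peptide, 50 mM Tris pH 7.5, 15 mM MgCl2, 1 mM DTT, 0.1% BSA, 2.5% DMSO. Enzyme and peptide are preincubated 15 min before ATP is added.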

For the next assay, the target named is PIM1 (Homo sapiens, UniProt P11309). As to the kind of experiment: KinaseGlo Pim1 ATP depletion assay. It is filed as biochemical. A digest of the protocol:
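IC50 is derived from residual ATP measured by KinaseGlo Plus luminescence once about half the ATP was consumed. Final conditions were 20 μM ATP, 40 μM BAD peptide and 2.5 nM kinase in HEPES pH 7.5 buffer with MgCl2, DTT and BSA, plus 2.5% DMSO. Compound and enzyme were premixed 15 min before ATP addition.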

For a further assay, the target named is PIM3 (Homo sapiens, UniProt Q86V86). As to the kind of experiment: KinaseGlo Pim3 ATP depletion assay. It is filed as biochemical. The procedure, abridged:
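Residual ATP was detected by luciferase luminescence once about half had been consumed. The reaction contained 5 nM enzyme, 100 μM BAD peptide (RSRHSSYPAGT) and 40 μM ATP in 50 mM HEPES pH 7.5, 5 mM MgCl2, 1 mM DTT and 0.05% BSA with 2.5% DMSO. Compound and enzyme/peptide were premixed 15 min before ATP.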

The subject of assay [1] is KMS11 (human myeloma cell line). Put plainly: Cell proliferation assay (CellTiter-Glo), KMS11. As to conditions: Homo sapiens, KMS-11; KMS11-Luc cells. Type of assay: cell-based. The procedure, abridged: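 EC50 derived from CellTiter-Glo luminescence after 3-day exposure at 37° C. Compound was diluted to 2× in medium and added to an equal volume of cells. KMS11 myeloma cells were plated on assay day at 2000/well in IMDM with 10% FBS and sodium pyruvate.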

GSK3β, sequence (P49841 whole entry, species assumed): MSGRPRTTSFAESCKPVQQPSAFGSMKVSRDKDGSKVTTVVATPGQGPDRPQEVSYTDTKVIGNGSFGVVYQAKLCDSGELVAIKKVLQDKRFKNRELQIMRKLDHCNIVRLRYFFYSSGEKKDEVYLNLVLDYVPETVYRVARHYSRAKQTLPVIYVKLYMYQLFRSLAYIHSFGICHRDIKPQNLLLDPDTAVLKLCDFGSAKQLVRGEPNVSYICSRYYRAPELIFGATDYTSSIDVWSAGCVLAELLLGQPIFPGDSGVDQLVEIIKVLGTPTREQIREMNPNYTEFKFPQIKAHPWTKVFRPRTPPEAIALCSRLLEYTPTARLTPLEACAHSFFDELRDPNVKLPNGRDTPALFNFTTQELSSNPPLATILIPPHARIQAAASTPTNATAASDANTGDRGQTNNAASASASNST
PIM2, sequence (Q9P1W9 whole entry): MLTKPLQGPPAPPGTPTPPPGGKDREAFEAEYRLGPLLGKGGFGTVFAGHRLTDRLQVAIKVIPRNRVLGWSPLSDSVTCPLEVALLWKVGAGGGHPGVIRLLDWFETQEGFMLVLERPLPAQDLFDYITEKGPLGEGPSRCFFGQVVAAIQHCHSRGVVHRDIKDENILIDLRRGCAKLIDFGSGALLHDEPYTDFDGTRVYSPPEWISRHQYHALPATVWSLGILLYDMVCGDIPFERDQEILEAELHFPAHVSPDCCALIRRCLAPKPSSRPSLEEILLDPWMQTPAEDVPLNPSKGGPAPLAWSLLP
PIM1, sequence (P11309 whole entry): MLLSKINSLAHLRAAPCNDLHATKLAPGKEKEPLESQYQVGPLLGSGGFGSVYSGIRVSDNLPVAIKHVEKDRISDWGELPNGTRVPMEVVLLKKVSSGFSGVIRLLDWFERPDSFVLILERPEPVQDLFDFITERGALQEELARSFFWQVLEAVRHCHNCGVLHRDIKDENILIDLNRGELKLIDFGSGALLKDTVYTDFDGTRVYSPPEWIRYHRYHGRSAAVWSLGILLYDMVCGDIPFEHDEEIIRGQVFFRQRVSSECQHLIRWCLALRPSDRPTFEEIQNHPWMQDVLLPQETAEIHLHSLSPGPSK

What is called IC50 is the concentration needed to halve the response being measured. Usually EC50 stands for the concentration that produces a half-maximal response. A high value points to a need for much substance. As to `O=C(Nc1cnccc1[C@@H]1C[C@H](O)[C@]2(O)CCCC[C@@H]2O1)c1ccc(F)c(-c2c(F)cccc2F)n1` [Example 177, 6-(2,6-difluorophenyl)-N-(4-((2S,4S,4aR,8aS)-4,4a-dihydroxyoctahydro-2H-chromen-2-yl)pyridin-3-yl)-5-fluoropicolinamide], the IC50 against PIM2 worked out at 171 nM; at GSK3β, 1060 nM; on PIM1 it was 38.6 nM; against PIM3, 162 nM. For the same compound, the EC50 in assay [1] was found to be 6830 nM.

On to `CC[C@]1(O)[C@H](O)C[C@H](c2ccncc2NC(=O)c2c[nH]cc(-c3ccccc3)c2=O)O[C@@H]1C` [Example 179, N-(4-((2R,4R,5S,6R)-5-ethyl-4,5-dihydroxy-6-methyltetrahydro-2H-pyran-2-yl)pyridin-3-yl)-4-oxo-5-phenyl-1,4-dihydropyridine-3-carboxamide], for which the IC50 is 3080 nM against PIM2, 2690 nM on GSK3β, 259 nM against PIM1 and 132 nM at PIM3. The compound also displayed an EC50 in assay [1] above 10000 nM.

With `Nc1cnc(-c2c(F)cccc2F)nc1C(=O)Nc1cnccc1[C@H]1C[C@@H](O)[C@@]2(O)CCC[C@H]2O1` [Example 180, 5-amino-2-(2,6-difluorophenyl)-N-(4-((2R,4R,4aS,7aR)-4,4a-dihydroxyoctahydrocyclopenta[b]pyran-2-yl)pyridin-3-yl)pyrimidine-4-carboxamide], the IC50 was determined as 10.6 nM on PIM2, 101 nM on GSK3β, 8.4 nM on PIM1 and 7.2 nM at PIM3. In assay [1], this compound gave an EC50 above 10000 nM.

As to `O=C(Nc1cnccc1[C@H]1C[C@@H](O)[C@@]2(O)CCC[C@H]2O1)c1c[nH]cc(-c2ccccc2)c1=O` [Example 181, N-(4-((2R,4R,4aS,7aR)-4,4a-dihydroxyoctahydrocyclopenta[b]pyran-2-yl)pyridin-3-yl)-4-oxo-5-phenyl-1,4-dihydropyridine-3-carboxamide], the IC50 at PIM2 came out at 9100 nM; on GSK3β, 4210 nM; against PIM1 it was 825 nM; on PIM3, 492 nM. This compound displayed an EC50 in assay [1] above 10000 nM.

`Nc1cnc(-c2c(F)cccc2F)nc1C(=O)Nc1cnccc1[C@@H]1C[C@H](O)[C@]2(O)CCC[C@@H]2O1` [Example 182, 5-amino-2-(2,6-difluorophenyl)-N-(4-((2S,4S,4aR,7aS)-4,4a-dihydroxyoctahydrocyclopenta[b]pyran-2-yl)pyridin-3-yl)pyrimidine-4-carboxamide]: the IC50 against PIM2 stood at 2780 nM; on GSK3β, 2670 nM; at PIM1, 539 nM; against PIM3 it was 951 nM. In addition, the EC50 in assay [1] was above 10000 nM.

Consider `O=C(Nc1cnccc1[C@@H]1C[C@H](O)[C@]2(O)CCC[C@@H]2O1)c1c[nH]cc(-c2ccccc2)c1=O` [Example 184, N-(4-((2S,4S,4aR,7aS)-4,4a-dihydroxyoctahydrocyclopenta[b]pyran-2-yl)pyridin-3-yl)-4-oxo-5-phenyl-1,4-dihydropyridine-3-carboxamide], for which the IC50 on PIM2, on GSK3β, against PIM1 and on PIM3 was above 25000 nM throughout. The EC50 in assay [1] is above 10000 nM.

Turning to `O=C(Nc1cnccc1[C@@H]1C[C@H](O)[C@]2(O)CCC[C@@H]2O1)c1ccc(F)c(-c2c(F)cccc2F)n1` [Example 188, 6-(2,6-difluorophenyl)-N-(4-((2S,4S,4aR,7aS)-4,4a-dihydroxyoctahydrocyclopenta[b]pyran-2-yl)pyridin-3-yl)-5-fluoropicolinamide], the IC50 against PIM2 is 318 nM; at GSK3β, 731 nM; at PIM1, 34.5 nM; on PIM3, 144 nM. Also, the EC50 in assay [1] was above 10000 nM.

Regarding `O=C(Nc1cnccc1[C@H]1C[C@@H](O)[C@@]2(O)CCCC[C@H]2O1)c1ccnn(-c2ccccc2F)c1=O` [Example 190, N-(4-((2R,4R,4aS,8aR)-4,4a-dihydroxyoctahydro-2H-chromen-2-yl)pyridin-3-yl)-2-(2-fluorophenyl)-3-oxo-2,3-dihydropyridazine-4-carboxamide], the IC50 at PIM2 was 494 nM; at GSK3β it was 38.5 nM; on PIM1 it was 33.9 nM; against PIM3, 35.5 nM. In addition, the EC50 in assay [1] was above 10000 nM.

Turning to `O=C(Nc1cnccc1[C@@H]1C[C@H](O)[C@]2(O)CCCC[C@@H]2O1)c1ccnn(-c2ccccc2F)c1=O` [Example 191, N-(4-((2S,4S,4aR,8aS)-4,4a-dihydroxyoctahydro-2H-chromen-2-yl)pyridin-3-yl)-2-(2-fluorophenyl)-3-oxo-2,3-dihydropyridazine-4-carboxamide], the IC50 at PIM2 is above 25000 nM; at GSK3β, 1080 nM; on PIM1, 1780 nM; against PIM3, 2370 nM. The EC50 in assay [1] is above 10000 nM.

Turning to `O=C(Nc1cnccc1[C@@H]1C[C@H](O)[C@]2(O)CCC[C@@H]2O1)c1cccn(-c2ccccc2)c1=O` [Example 192, N-(4-((2S,4S,4aR,7aS)-4,4a-dihydroxyoctahydrocyclopenta[b]pyran-2-yl)pyridin-3-yl)-2-oxo-1-phenyl-1,2-dihydropyridine-3-carboxamide], the IC50 against PIM2, at GSK3β, against PIM1 and against PIM3 was above 25000 nM each time. Further, in assay [1], the EC50 was above 10000 nM.

With `CC[C@H]1O[C@@H](c2ccncc2NC(=O)c2cccn(-c3ccccc3)c2=O)C[C@@H](O)[C@@H]1O` [Example 193, N-(4-((2R,4R,5S,6R)-6-ethyl-4,5-dihydroxytetrahydro-2H-pyran-2-yl)pyridin-3-yl)-2-oxo-1-phenyl-1,2-dihydropyridine-3-carboxamide], the IC50 at PIM2 is above 25000 nM; at GSK3β it was above 25000 nM; against PIM1, 5850 nM; against PIM3 it was 7570 nM. In assay [1], this compound yielded an EC50 above 10000 nM.

For the compound `O=C(Nc1cnccc1[C@H]1C[C@@H](O)[C@@]2(O)CCC[C@H]2O1)c1cccn(-c2ccccc2)c1=O` [Example 194, N-(4-((2R,4R,4aS,7aR)-4,4a-dihydroxyoctahydrocyclopenta[b]pyran-2-yl)pyridin-3-yl)-2-oxo-1-phenyl-1,2-dihydropyridine-3-carboxamide], the IC50 on PIM2 was above 25000 nM; at GSK3β it was 13300 nM; against PIM1, 2210 nM; at PIM3 it was 2850 nM. In assay [1], this compound came in with an EC50 above 10000 nM.

Take `O=C1CC[C@H]2O[C@@H](c3ccncc3NC(=O)c3ccc(F)c(-c4c(F)cccc4F)n3)C[C@@H](O)[C@H]2N1` [Example 198, 6-(2,6-difluorophenyl)-5-fluoro-N-(4-((2R,4R,4aR,8aR)-4-hydroxy-6-oxooctahydro-2H-pyrano[3,2-b]pyridin-2-yl)pyridin-3-yl)picolinamide]: the IC50 against PIM2 came out at 53.6 nM; at GSK3β, 24 nM; against PIM1, 2.6 nM; on PIM3, 19.2 nM. In assay [1], this compound yielded an EC50 above 10000 nM.

Take `CC[C@H]1O[C@@H](c2ccncc2NC(=O)c2ccc(F)c(-c3c(F)cccc3F)n2)C[C@@H](O)[C@H]1C#N` [Example 200, N-(4-((2R,4R,5R,6R)-5-cyano-6-ethyl-4-hydroxytetrahydro-2H-pyran-2-yl)pyridin-3-yl)-6-(2,6-difluorophenyl)-5-fluoropicolinamide]: the IC50 was found to be 46.7 nM against PIM2, 1200 nM on GSK3β, 7.8 nM against PIM1 and 33.9 nM against PIM3. The same compound returned an EC50 in assay [1] above 10000 nM.

In the case of `O=C(Nc1cnccc1[C@H]1C[C@@H](O)[C@@]2(O)CCC[C@H]2O1)c1ccnn(-c2ccccc2F)c1=O` [Example 201, N-(4-((2R,4R,4aS,7aR)-4,4a-dihydroxyoctahydrocyclopenta[b]pyran-2-yl)pyridin-3-yl)-2-(2-fluorophenyl)-3-oxo-2,3-dihydropyridazine-4-carboxamide], the IC50 on PIM2 was determined as 3210 nM; on GSK3β, 383 nM; on PIM1, 149 nM; on PIM3, 132 nM. The same compound showed an EC50 in assay [1] above 10000 nM.

With `CC[C@H]1O[C@@H](c2ccncc2NC(=O)c2c[nH]cc(-c3ccccc3F)c2=O)C[C@@H](O)[C@@H]1O` [Example 202, N-(4-((2R,4R,5S,6R)-6-ethyl-4,5-dihydroxytetrahydro-2H-pyran-2-yl)pyridin-3-yl)-5-(2-fluorophenyl)-4-oxo-1,4-dihydropyridine-3-carboxamide], the IC50 is 6910 nM at PIM2, 4400 nM at GSK3β, 754 nM on PIM1 and 1100 nM on PIM3. In addition, in assay [1], the EC50 is above 10000 nM.
